pIC50: −log10 of the molar value.
Biological target: T1, CDK12 complexed with Cyclin K (Homo sapiens, UniProt Q9NYV4)
T1 construct: GST (N); host or cells: baculovirus expression system
Assay: CDK enzymatic assay (HTRF, LANCE Ultra kinase assay)
Type: biochemical
Conditions: 60 minutes pre-incubation with compound; 1 mM ATP
Experimental: The following activity of the CDK enzymes in complex with their respective cyclins we assayed: CDK1 complexed with Cyclin B1; CDK2 complexed with Cyclin E1; CDK4 complexed with Cyclin D1; CDK6 complexed with Cyclin D1; CDK6 complexed with Cyclin D3; CDK9 complexed with Cyclin T1; CDK7 complexed with Cyclin H/MAT1; CDK2 complexed with Cyclin A2; CDK5 complexed with p35; CDK12 complexed with Cyclin K; CDK13 complexed with Cyclin K. These in vitro enzyme activity are assayed using homogeneous time-resolved energy transfer (HTRF), which measures phosphorylation of a peptide substrate. The LANCE® Ultra kinase assay (PerkinElmer) uses a ULight™-labeled EIF4E-binding protein 1 (THR37/46) peptide (DYSTTPGGTLFSTTPGTRI (SEQ ID NO: 1)) substrate and a Europium-labeled anti-phospho-4E-BP1 antibody (CDK2, CDK1, CDK4, CDK6, CDK9, CDK12, CDK13) or ULight™-labeled Myelin Basic Protein peptide (VTPRTPPP (SEQ ID NO: 2)) substrate and a Europium-labeled anti-phospho-MBP antibody (CDK7). Each CDK enzyme activity assays utilized human CDK co-expressed as N-terminal GST-tagged protein with its full length cyclin partner using a baculovirus expression system.
Enzyme was pre-incubated with compounds for 30 minutes (CDK1,2,4,6,9) or 60 minutes (CDK7, CDK12, CDK13) prior to addition of ATP and Ulight-peptide (1 mM and 50 nM final, respectively), in assay buffer containing 50 mM HEPES pH 7.5, 1 mM EGTA, 10 mM MgCl2, 2 mM DTT, 0.05 mg/mL BSA, and 0.01% Tween 20. The reaction was then incubated for 60-90 minutes at room temperature. The reactions were stopped by the addition of EDTA and Europium labeled antibody, for a final concentration of 15 mM and 1.0-1.5 nM, respectively. HTRF signals were read after 15-120 minutes. A ratio of fluorescence transferred to the labeled substrate (665 nm) relative to fluorescence of the Europium donor (620 nm) represents the extent of phosphorylation. Ratios for treated wells were normalized to DMSO only (100% activity) and no enzyme (0% activity) controls. Normalized data was analyzed using a three or four parameter dose response curve to determine IC50 for each compound and are shown in Table A. Control reference inhibitors were included on each plate.

T1 sequence (Q9NYV4 whole entry): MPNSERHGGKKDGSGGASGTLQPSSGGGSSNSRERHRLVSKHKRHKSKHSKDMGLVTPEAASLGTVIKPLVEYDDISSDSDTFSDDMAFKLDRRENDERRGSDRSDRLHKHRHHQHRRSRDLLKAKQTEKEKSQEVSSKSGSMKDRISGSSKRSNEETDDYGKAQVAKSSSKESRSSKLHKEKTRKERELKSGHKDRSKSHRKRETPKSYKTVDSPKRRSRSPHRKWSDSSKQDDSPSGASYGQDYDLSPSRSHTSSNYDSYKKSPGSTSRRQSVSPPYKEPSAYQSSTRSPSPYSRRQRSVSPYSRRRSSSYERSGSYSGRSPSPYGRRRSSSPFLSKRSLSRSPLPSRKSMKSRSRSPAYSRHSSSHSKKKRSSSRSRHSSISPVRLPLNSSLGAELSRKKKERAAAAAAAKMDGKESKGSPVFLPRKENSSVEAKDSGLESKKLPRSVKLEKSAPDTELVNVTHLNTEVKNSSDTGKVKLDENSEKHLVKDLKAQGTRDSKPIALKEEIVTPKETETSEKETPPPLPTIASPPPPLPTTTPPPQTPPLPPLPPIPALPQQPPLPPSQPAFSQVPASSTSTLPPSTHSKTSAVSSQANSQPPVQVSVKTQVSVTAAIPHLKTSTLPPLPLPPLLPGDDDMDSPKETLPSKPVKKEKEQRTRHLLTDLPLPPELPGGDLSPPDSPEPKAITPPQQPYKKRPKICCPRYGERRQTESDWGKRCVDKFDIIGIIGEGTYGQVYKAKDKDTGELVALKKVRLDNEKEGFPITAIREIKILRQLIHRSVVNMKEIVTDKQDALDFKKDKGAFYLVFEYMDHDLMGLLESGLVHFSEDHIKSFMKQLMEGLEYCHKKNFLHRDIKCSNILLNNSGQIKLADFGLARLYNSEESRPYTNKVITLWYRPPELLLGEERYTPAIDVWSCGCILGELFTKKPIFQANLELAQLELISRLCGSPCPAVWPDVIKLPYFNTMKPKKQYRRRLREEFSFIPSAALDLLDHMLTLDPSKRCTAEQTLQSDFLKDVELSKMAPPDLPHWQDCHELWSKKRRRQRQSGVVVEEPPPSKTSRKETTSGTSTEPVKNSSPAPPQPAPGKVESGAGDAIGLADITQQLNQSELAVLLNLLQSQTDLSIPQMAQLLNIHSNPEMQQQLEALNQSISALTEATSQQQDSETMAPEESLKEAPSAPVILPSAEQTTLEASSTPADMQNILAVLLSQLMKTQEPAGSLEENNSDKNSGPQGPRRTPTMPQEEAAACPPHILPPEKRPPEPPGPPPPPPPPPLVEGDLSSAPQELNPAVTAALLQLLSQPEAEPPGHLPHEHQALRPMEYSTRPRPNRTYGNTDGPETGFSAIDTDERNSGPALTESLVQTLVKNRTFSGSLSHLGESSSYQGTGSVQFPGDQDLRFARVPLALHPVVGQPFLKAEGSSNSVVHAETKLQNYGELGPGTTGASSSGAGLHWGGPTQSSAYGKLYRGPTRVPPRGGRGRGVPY
T1 sequence (O75909 whole entry partner): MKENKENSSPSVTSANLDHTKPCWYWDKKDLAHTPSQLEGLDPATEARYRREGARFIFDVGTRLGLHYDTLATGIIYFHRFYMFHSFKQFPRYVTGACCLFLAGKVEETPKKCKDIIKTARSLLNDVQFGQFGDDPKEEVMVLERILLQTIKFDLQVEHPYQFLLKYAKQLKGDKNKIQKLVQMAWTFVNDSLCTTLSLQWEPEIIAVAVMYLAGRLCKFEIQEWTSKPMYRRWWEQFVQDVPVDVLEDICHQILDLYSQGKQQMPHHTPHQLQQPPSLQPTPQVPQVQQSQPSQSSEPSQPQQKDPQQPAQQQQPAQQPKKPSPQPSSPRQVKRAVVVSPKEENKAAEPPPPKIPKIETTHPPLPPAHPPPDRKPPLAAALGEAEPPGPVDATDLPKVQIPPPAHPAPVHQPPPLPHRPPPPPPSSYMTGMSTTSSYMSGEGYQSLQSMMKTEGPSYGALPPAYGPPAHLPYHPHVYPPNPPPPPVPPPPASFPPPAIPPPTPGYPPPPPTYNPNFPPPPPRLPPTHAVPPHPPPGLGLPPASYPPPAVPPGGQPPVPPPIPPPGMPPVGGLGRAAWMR

| Compound | pIC50 |
| --- | --- |
| C=CC(=O)Nc1ccc(C(=O)N2CC(Nc3nc4cnc(-c5cn[nH]c5)c(OC(C)C)n4n3)C2)cc1 [Example 1, N-(4-(3-((5-Isopropoxy-6-(1H-pyrazol-4-yl)-[1,2,4]triazolo[1,5-a]pyrazin-2-yl)amino)azetidine-1-carbonyl)phenyl)acrylamide] | > 7.30 |
| C=CC(=O)Nc1ccc(C(=O)N2CCC(Nc3nc4c(OC)c(-c5cn[nH]c5)ncn4n3)CC2)cc1 [Example 2, N-(4-(4-((8-Methoxy-7-(1H-pyrazol-4-yl)-[1,2,4]triazolo[1,5-c]pyrimidin-2-yl)amino)piperidine-1-carbonyl)phenyl)acrylamide] | > 7.30 |
| C=CC(=O)Nc1ccc(C(=O)N2CC(Nc3nc4c(OC)c(-c5cn[nH]c5)ncn4n3)C2)cc1 [Example 3, N-(4-(3-((8-Methoxy-7-(1H-pyrazol-4-yl)-[1,2,4]triazolo[1,5-c]pyrimidin-2-yl)amino)azetidine-1-carbonyl)phenyl)acrylamide] | > 7.30 |
| C=CC(=O)Nc1ccc(C(=O)N2CCC[C@@H](Nc3nc4cnc(-c5cn[nH]c5)c(OC(C)C)n4n3)C2)c(F)c1 [Example 4, (R)-N-(3-Fluoro-4-(3-((5-isopropoxy-6-(1H-pyrazol-4-yl)-[1,2,4]triazolo[1,5-a]pyrazin-2-yl)amino)piperidine-1-carbonyl)phenyl)acrylamide] | > 7.30 |
| C=CC(=O)Nc1ccc(C(=O)N2CCC[C@@H](Nc3nc4c(OC)c(-c5cn[nH]c5)ncn4n3)C2)cc1 [Example 5, (R)-N-(4-(3-((8-Methoxy-7-(1H-pyrazol-4-yl)-[1,2,4]triazolo[1,5-c]pyrimidin-2-yl)amino)piperidine-1-carbonyl)phenyl)acrylamide] | > 7.30 |
| C=CC(=O)Nc1ccc(C(=O)N2CCC[C@@H](Nc3nc4ccc(-c5cn[nH]c5)c(N5CCCCC5)n4n3)C2)cc1 [Example 6, (R)-N-(4-(3-((5-(Piperidin-1-yl)-6-(1H-pyrazol-4-yl)-[1,2,4]triazolo[1,5-a]pyridin-2-yl)amino)piperidine-1-carbonyl)phenyl)acrylamide] | > 7.30 |
| C=CC(=O)Nc1ccc(C(=O)N2CCC[C@@H](Nc3nc4ccc(-c5cn[nH]c5)c(N5CCCC5)n4n3)C2)cc1 [Example 7, (R)-N-(4-(3-((6-(1H-Pyrazol-4-yl)-5-(pyrrolidin-1-yl)-[1,2,4]triazolo[1,5-a]pyridin-2-yl)amino)piperidine-1-carbonyl)phenyl)acrylamide] | > 7.30 |
| C=CC(=O)Nc1ccc(C(=O)N2CCC[C@@H](Nc3nc4ccc(-c5cn[nH]c5)c(N5CCOCC5)n4n3)C2)cc1 [Example 8, (R)-N-(4-(3-((5-Morpholino-6-(1H-pyrazol-4-yl)-[1,2,4]triazolo[1,5-a]pyridin-2-yl)amino)piperidine-1-carbonyl)phenyl)acrylamide] | > 7.30 |
| C=CC(=O)Nc1ccc(C(=O)N2CCCC(Nc3nc4ccc(-c5c[nH]nc5C)c(N5CCOCC5)n4n3)C2)cc1 (stereo not drawn) [Example 9, N-(4-(3-((6-(3-Methyl-1H-pyrazol-4-yl)-5-morpholino-[1,2,4]triazolo[1,5-a]pyridin-2-yl)amino)piperidine-1-carbonyl)phenyl)acrylamide] | < 6.30 |
| C=CC(=O)Nc1ccc(C(=O)N2CCC[C@@H](Nc3nc4cnc(-c5cn[nH]c5)c(OC5CC(F)(F)C5)n4n3)C2)cc1 [Example 10, (R)-N-(4-(3-((5-(3,3-Difluorocyclobutoxy)-6-(1H-pyrazol-4-yl)-[1,2,4]triazolo[1,5-a]pyrazin-2-yl)amino)piperidine-1-carbonyl)phenyl)acrylamide] | > 7.30 |
| C=CC(=O)Nc1ccc(C(=O)N2CC[C@@H](Nc3nc4ccc(-c5cn[nH]c5)cn4n3)C2)cc1 [Example 11, (R)-N-(4-(3-((6-(1H-Pyrazol-4-yl)-[1,2,4]triazolo[1,5-a]pyridin-2-yl)amino)pyrrolidine-1-carbonyl)phenyl)acrylamide] | > 7.30 |
| C=CC(=O)Nc1ccc(C(=O)N2CC[C@@H](Nc3nc4ccc(-c5cn[nH]c5)c(C)n4n3)C2)cc1 [Example 12, (R)-N-(4-(3-((5-Methyl-6-(1H-pyrazol-4-yl)-[1,2,4]triazolo[1,5-a]pyridin-2-yl)amino)pyrrolidine-1-carbonyl)phenyl)acrylamide] | > 7.30 |
| C=CC(=O)Nc1ccc(C(=O)N2CCC[C@@H](Nc3nc4ccc(-c5cn[nH]c5)c(N5CCC(F)(F)CC5)n4n3)C2)cc1 [Example 13, (R)-N-(4-(3-((5-(4,4-Difluoropiperidin-1-yl)-6-(1H-pyrazol-4-yl)-[1,2,4]triazolo[1,5-a]pyridin-2-yl)amino)piperidine-1-carbonyl)phenyl)acrylamide] | 6.30 to 7.30 |
| C=CC(=O)Nc1ccc(C(=O)N2CCC[C@@H](Nc3nc4ccc(-c5cn[nH]c5)c(O[C@H]5CCOC5)n4n3)C2)cc1 [Example 14, N-(4-((R)-3-((6-(1H-Pyrazol-4-yl)-5-(((S)-tetrahydrofuran-3-yl)oxy)-[1,2,4]triazolo[1,5-a]pyridin-2-yl)amino)piperidine-1-carbonyl)phenyl)acrylamide] | > 7.30 |

Next, values leading:

| pIC50 | Compound |
| --- | --- |
| > 7.30 | C=CC(=O)Nc1ccc(C(=O)N2CCC[C@@H](Nc3nc4ccc(-c5cn[nH]c5)c(OC5CCOCC5)n4n3)C2)cc1 [Example 15, (R)-N-(4-(3-((6-(1H-Pyrazol-4-yl)-5-((tetrahydro-2H-pyran-4-yl)oxy)-[1,2,4]triazolo[1,5-a]pyridin-2-yl)amino)piperidine-1-carbonyl)phenyl)acrylamide] |
| > 7.30 | C=CC(=O)Nc1ccc(O[C@H]2CCC[C@@H](Nc3nc4ccc(-c5cn[nH]c5)c(N5CCCCC5)n4n3)C2)cc1 [Example 16, N-(4-(((1S,3R)-3-((5-(Piperidin-1-yl)-6-(1H-pyrazol-4-yl)-[1,2,4]triazolo[1,5-a]pyridin-2-yl)amino)cyclohexyl)oxy)phenyl)acrylamide] |
| > 7.30 | C=CC(=O)Nc1ccc(C(=O)N2CC[C@@H](Nc3nc4ccc(-c5cn[nH]c5)c(C#N)n4n3)C2)cc1 [Example 17, (R)-N-(4-(3-((5-Cyano-6-(1H-pyrazol-4-yl)-[1,2,4]triazolo[1,5-a]pyridin-2-yl)amino)pyrrolidine-1-carbonyl)phenyl)acrylamide] |
| > 7.30 | C=CC(=O)Nc1ccc(C(=O)N2CC[C@@H](Nc3nc4ccc(-c5cn[nH]c5)c(C(C)C)n4n3)C2)cc1 [Example 18, (R)-N-(4-(3-((5-Isopropyl-6-(1H-pyrazol-4-yl)-[1,2,4]triazolo[1,5-a]pyridin-2-yl)amino)pyrrolidine-1-carbonyl)phenyl)acrylamide] |
| > 7.30 | C=CC(=O)Nc1ccc(C(=O)N2CC[C@@H](Nc3nc4ccc(-c5cn[nH]c5)c(C(C)C)n4n3)C2)cc1F [Example 19, (R)-N-(2-Fluoro-4-(3-((5-isopropyl-6-(1H-pyrazol-4-yl)-[1,2,4]triazolo[1,5-a]pyridin-2-yl)amino)pyrrolidine-1-carbonyl)phenyl)acrylamide] |
| > 7.30 | C=CC(=O)Nc1ccc(C(=O)N2CC[C@@H](Nc3nc4ccc(-c5cnco5)cn4n3)C2)cc1 [Example 20, (R)-N-(4-(3-((6-(Oxazol-5-yl)-[1,2,4]triazolo[1,5-a]pyridin-2-yl)amino)pyrrolidine-1-carbonyl)phenyl)acrylamide] |
| > 7.30 | C=CC(=O)Nc1ccc2c(c1)C(=O)N([C@H]1CCC[C@@H](Nc3nc4ccc(-c5cn[nH]c5)c(N5CCCCC5)n4n3)C1)C2 [Example 21, N-(3-Oxo-2-((1S,3R)-3-((5-(piperidin-1-yl)-6-(1H-pyrazol-4-yl)-[1,2,4]triazolo[1,5-a]pyridin-2-yl)amino)cyclohexyl)isoindolin-5-yl)acrylamide] |
| > 7.30 | C=CC(=O)Nc1ccc2c(c1)C(=O)N([C@H]1CCC[C@@H](Nc3nc4ccc(-c5cn[nH]c5)c(C)n4n3)C1)C2 [Example 22, N-(2-((1S,3R)-3-((5-Methyl-6-(1H-pyrazol-4-yl)-[1,2,4]triazolo[1,5-a]pyridin-2-yl)amino)cyclohexyl)-3-oxoisoindolin-5-yl)acrylamide] |
| > 7.30 | C=CC(=O)Nc1ccc2c(c1)C(=O)N([C@H]1CCC[C@@H](Nc3nc4ccc(-c5cn[nH]c5)c(C(C)C)n4n3)C1)C2 [Example 23, N-(2-((1S,3R)-3-((5-Isopropyl-6-(1H-pyrazol-4-yl)-[1,2,4]triazolo[1,5-a]pyridin-2-yl)amino)cyclohexyl)-3-oxoisoindolin-5-yl)acrylamide] |
| 6.30 to 7.30 | C=CC(=O)Nc1ccc(C(=O)N2CC[C@@H](Nc3nc4cc(C)c(-c5cn[nH]c5)cn4n3)C2)cc1 [Example 24, (R)-N-(4-(3-((7-Methyl-6-(1H-pyrazol-4-yl)-[1,2,4]triazolo[1,5-a]pyridin-2-yl)amino)pyrrolidine-1-carbonyl)phenyl)acrylamide] |

Reference: patent US12084453B2, “Bicyclic amines as CDK12 inhibitors” (Incyte Corporation, priority 2021, dated 2024)
